According to PMC4094919, “Screening and hit evaluation of a chemical library against blood-stage Plasmodium falciparum” (Malaria Journal, 2014):
pEC50: −log10 of the molar value. Entries after “also recorded” stand apart in the source; their conditions may differ. Read-outs that look alike come from different tables or passages of the source. Marks after values point to notes of the source that are not given here.

Key:
[1] = system: P. falciparum NF54 strain; assay: P. falciparum NF54 growth assay, 3H-hypoxanthine incorporation (hit validation); format: cell-based, Plasmodium falciparum; details: for pEC50 / EC50: Plasmodium falciparum; for Comment (activity in words on retest): hit validation, NF54 confirmatory assay
Procedure: Synthesized compounds were tested in an alternative assay, in which ^3H-hypoxanthine incorporation was measured in the chloroquine-sensitive strain NF54 (Values were measured in duplicate, 12 points/EC50).
Cultivation of Plasmodium falciparum: Plasmodium falciparum strain NF54 was obtained from the Research and Reference Reagent Resource Center (MR4) (Manassas, VA, USA). The two strains were maintained in vitro by a modification of the method of Trager and Jensen. Cultures were maintained in A positive (A^+) human erythrocytes suspended at 5% hematocrit in complete medium. […] Parasite growth and morphology were observed daily using thin smears at 100X (oil immersion) magnification following staining with Giemsa stain.
Plasmodium falciparum growth assay: The protocol assesses the compound efficacy against the growth of P. falciparum in vitro.
All cultures used in the study are albumax II adopted. […]
Following the incubation period, the plates were harvested with a FilterMate cell harvester (Perkin Elmer) onto unifilter-96 GF/B plates, washed with distilled water to remove excess radiochemical and plates were kept for drying 37°C overnight or 60°C for 1 hr. Fifty µL of Microscint scintillation cocktail (Microscint-High Efficiency LSC-Cocktail; Perkin Elmer) added in the unifilter-96 GF/B plates and kept for 15-20 min. The plates were counted in a Top Count NXT microplate scintillation and luminescence counter (Perkin Elmer). The mean values for [^3H]-hypoxanthine incorporation in parasitized control and non-parasitized control erythrocytes were calculated.
Assay data were analysed using Graph pad prism ver.5 software. A variable sigmoid dose response curve is plotted keeping log concentrations at X-axis and % inhibition at Y-axis.

P. falciparum 3D7 strain = assay: P. falciparum 3D7 growth inhibition, DAPI imaging (HTS screen); format: cell-based
Procedure: The P. falciparum 3D7 strain was used for the primary screen.
For the screening of the chemical library, a validated high throughput screening (HTS) method was used as reported by Duffy and Avery. In brief, intra-erythrocyte P. falciparum 3D7 parasites incubated with the compounds for 72 hours were stained with 4′-6-diamidino-2-phenylindole (DAPI) and imaged using a high throughput confocal imaging system. To ascertain inhibition of parasite growth, images of fluorescent parasites were translated, using a mathematical algorithm, into a numerical output of classified spots (parasites) as determined by fluorescence size and intensity.
EC50 and CC50 values were calculated for compounds which presented an Emax plateau using GraphPad Prism.

[2] = P. falciparum NF54 strain, 3H-hypoxanthine incorporation, newly synthesized sample, read-out: EC50 (NF54)
[3] = negative logarithm of the molar EC50, NF54, read-out: pEC50 (NF54) (converted)
[4] = NF54, heading bounds of Figure 8: not reconfirming / reconfirming / newly synthesized compounds, read-out: EC50 (bound in Figure 8)
[5] = Plasmodium falciparum; P. falciparum 3D7 strain, DAPI imaging, HTS screen, library sample; read-out: EC50 (3D7)
[6] = Plasmodium falciparum; negative logarithm of the molar EC50, 3D7; read-out: pEC50 (3D7) (converted)
[7] = 3D7 / NF54, range over HTS (3D7) and retest after synthesis (NF54), read-out: EC50 range over the two assays

| SMILES | pEC50 [1, 2] | EC50 [1, 3] [nM] | Comment (activity in words on retest) [1] | pEC50 [1, 4] | pEC50 (P. falciparum 3D7 strain; [5]) | EC50 (P. falciparum 3D7 strain; [6]) [nM] | also measured |
| --- | --- | --- | --- | --- | --- | --- | --- |
| CC(=O)N1c2ccccc2[C@@H](c2ccccc2)[C@@H]1C(=O)O (racemic) [Compound 4a, Rac (2R,3R)-1-acetyl-3-phenylindoline-2-carboxylic acid] | < 5.00 | > 10000 | did not confirm activity; also recorded: Inactive | – | – | – | – |
| Cc1c(Cc2c(C)n(Cc3ccccc3C#N)c3ccccc23)c2ccccc2n1Cc1ccccc1C#N [Compound 2, 2,2'-((3,3'-methylenebis(2-methyl-1H-indole-3,1-diyl))bis(methylene))dibenzonitrile] | 6.12 | 794 | EC50 in the same range as initially described during the HTS | – | – | – | – |
| CC(C)(C)CC(=O)N(Cc1ccc(NC(=O)c2ccc(C#N)cc2)cc1)CC(C)(C)CN [Compound 3, N-(4-((N-(3-amino-2,2-dimethylpropyl)-3,3-dimethylbutanamido)methyl)phenyl)-4-cyanobenzamide] | 5.52 | 3160 | Weakly active | < 6.00 | 6.65 | 200 | – |
| CC(=O)N1c2ccccc2C(c2ccccc2)C1C(=O)O (centres unmarked) [Compound 4] | – | – | – | < 6.00 | 6.76 | 158 | – |
| COc1ccc(NC(=O)c2cnn(-c3ccccc3)c2-c2ccccc2)c(OC)c1 [Compound 5, N-(2,4-dimethoxyphenyl)-1,5-diphenyl-1H-pyrazole-4-carboxamide] | 5.41 | 3980 | Weakly active | < 6.00 | 6.06 | 794 | pEC50 ([1]; P. falciparum NF54, after synthesis, read-out: EC50 (NF54)): ~5.40 |
| CC(=O)N1CCN(Cc2coc(Cc3ccccc3)n2)CC1 [Compound 6, 1-(4-((2-benzyloxazol-4-yl)methyl)piperazin-1-yl)ethanone] | < 5.00 | > 10000 | Inactive | < 6.00 | > 8.00 | < 10 | – |
| O=C(Nc1cc(=O)[nH]c2nc(-c3ccccc3)nn12)C1CCCCC1 [Compound 7, N-(5-oxo-2-phenyl-4,5-dihydro-[1,2,4]triazolo[1,5-a]pyrimidin-7-yl)cyclohexanecarboxamide] | 6.35 | 501 | Validated hit, CHEMBL587310^f) | > 6.00 | 6.19 | 631 | pEC50 [1, 7]: 6.19 to 6.35 |
| COc1ccc(-c2cnc3sc(NC4CCC(N)CC4)nn23)cn1 (centres unmarked) [Compound 8, N1-(5-(6-methoxypyridin-3-yl)imidazo[2,1-b][1,3,4]thiadiazol-2-yl)cyclohexane-1,4-diamine] | – | – | – | – | – | – | pEC50 ([1]; 3D7 / NF54, read-out: EC50 range over the two assays): 6.54 to 6.55; pEC50 ([1]; NF54, read-out: EC50 (NF54)): 6.55; pEC50 ([1]; NF54, read-out: EC50 (bound in Figure 8)): > 6.00; EC50 ([1]; NF54, read-out: pEC50 (NF54) (converted)): 316 nM; pEC50 (P. falciparum 3D7 strain; Plasmodium falciparum, 3D7, read-out: EC50 (3D7)): 6.53; EC50 (P. falciparum 3D7 strain; Plasmodium falciparum, 3D7, read-out: pEC50 (3D7) (converted)): 316 nM |
| CCOc1ncccc1C(=O)Nc1cc(C(F)(F)F)ccc1Oc1cccc(OC)c1 [Compound 9, 2-ethoxy-N-(2-(3-methoxyphenoxy)-5-(trifluoromethyl)phenyl)nicotinamide] | 6.51 | 316 | Validated hit | > 6.00 | 6.41 | 398 | pEC50 [1, 7]: 6.41 to 6.51 |
| O=C(c1cccc(-c2noc(CN(CCN3CCCCC3)C(=O)c3ccccc3)n2)c1)N1CCCNCC1 [Compound 10, N-((3-(3-(1,4-diazepane-1-carbonyl)phenyl)-1,2,4-oxadiazol-5-yl)methyl)-N-(2-(piperidin-1-yl)ethyl)benzamide] | 7.22 | 63.1 | Validated hit | > 6.00 | 6.74 | 200 | pEC50 [1, 7]: 6.74 to 7.22 |
| O=C(NCC(c1ccsc1)N1CCCCCC1)c1ccc(C(F)(F)F)cc1 (centres unmarked) [Compound 11, N-(2-(azepan-1-yl)-2-(thiophen-3-yl)ethyl)-4-(trifluoromethyl)benzamide] | 6.29 | 501 | Validated hit | > 6.00 | 6.36 | 398 | – |
| COc1ccc2c(c1)C1(Nc3ccccc3-c3nc4ccccc4n31)C(=O)N2 (centres unmarked) [Compound 12, 5'-methoxy-5H-spiro[benzo[4,5]imidazo[1,2-c]quinazoline-6,3'-indolin]-2'-one] | 7.22 | 63.1 | Validated hit, CHEMBL1545915^f) | > 6.00 | 6.03 | 1000 | – |
| Cc1csc(Sc2ncnc3sccc23)n1 [Compound 13, 4-((4-methylthiazol-2-yl)thio)thieno[2,3-d]pyrimidine] | 6.99 | 100 | Validated hit | > 6.00 | 6.71 | 200 | pEC50 [1, 7]: 6.71 to 6.99 |
| O=C(O)C1Cc2c([nH]c3ccccc23)C(c2ccc(Cl)cc2Cl)N1 (centres unmarked) [Compound 14] | – | – | – | – | 6.46 | 316 | – |
| O=C(O)[C@@H]1Cc2c([nH]c3ccccc23)[C@H](c2ccc(Cl)cc2Cl)N1 [Compound 14a, (1S,3S)-1-(2,4-dichlorophenyl)-2,3,4,9-tetrahydro-1H-pyrido[3,4-b]indole-3-carboxylic acid] | < 5.00 | > 10000 | Inactive | > 6.00 | – | – | – |
| O=C(O)[C@@H]1Cc2c([nH]c3ccccc23)[C@@H](c2ccc(Cl)cc2Cl)N1 [Compound 14b, (1R,3S)-1-(2,4-dichlorophenyl)-2,3,4,9-tetrahydro-1H-pyrido[3,4-b]indole-3-carboxylic acid] | 6.78 | 158 | Hit | > 6.00 | – | – | – |
| O=C(O)[C@H]1Cc2c([nH]c3ccccc23)[C@@H](c2ccc(Cl)cc2Cl)N1 [Compound 14c] | 5.38 | 3980 | weak activity; also recorded: Weakly active | > 6.00 | – | – | – |
| O=C(O)[C@H]1Cc2c([nH]c3ccccc23)[C@H](c2ccc(Cl)cc2Cl)N1 [Compound 14d] | < 5.00 | > 10000 | Inactive | > 6.00 | – | – | – |
| Cc1ccc(S(=O)(=O)N2CC(C)N(Cc3ccc(C(=O)NC4CC4)cc3)CC2C)cc1 (centres unmarked) [Compound 15, N-cyclopropyl-4-((2,5-dimethyl-4-tosylpiperazin-1-yl)methyl)benzamide] | – | – | – | – | 6.17 | – | – |
| Cc1ccc(S(=O)(=O)N2C[C@H](C)N(Cc3ccc(C(=O)NC4CC4)cc3)C[C@@H]2C)cc1 [Compound 15a] | 7.36 | 39.8 | Hit | > 6.00 | – | – | Difference in activity between the two enantiomers ([1]; 15a versus 15b, NF54 EC50): more than 15 fold |
| Cc1ccc(S(=O)(=O)N2C[C@@H](C)N(Cc3ccc(C(=O)NC4CC4)cc3)C[C@H]2C)cc1 [Compound 15b] | 6.17 | 631 | Hit | > 6.00 | – | – | – |
| Cc1ccc(S(=O)(=O)N2CCN(Cc3ccc(C(=O)NC4CC4)cc3)CC2)cc1 [Compound 15c, N-cyclopropyl-4-((4-tosylpiperazin-1-yl)methyl)benzamide] | 6.27 | 501 | Hit | > 6.00 | – | – | – |
| CC(C)=CCN1CCC2(CC1)CN(C(=O)Nc1cccc(C#N)c1)c1ccc(C)cc12 [Compound 16] | – | – | – | – | – | – | pEC50 (P. falciparum 3D7 strain; Plasmodium falciparum, 3D7; read-out: EC50 (3D7)): 6.00; pEC50 (P. falciparum 3D7 strain; Plasmodium falciparum, 3D7; read-out: Potency at HTS (3D7)): > 6.00; EC50 (P. falciparum 3D7 strain; Plasmodium falciparum, 3D7; read-out: pEC50 (3D7) (converted)): 1000 nM |
| O=C(Nc1cccc(Cl)c1)N1CC2(CCN(Cc3ccccc3)CC2)c2ccccc21 [Compound 17, 1'-benzyl-N-(3-chlorophenyl)spiro[indoline-3,4'-piperidine]-1-carboxamide] | 6.51 | 316 | Hit | > 6.00 | – | – | – |
